Experimental findings from patent US10239870B2, “Dopamine D3 receptor antagonists” (priority 2014, dated 2019) are described below.

This assay deals with hD2 recombinant receptor (human dopamine receptor type 2, long variant, CHO-Gα16-hD2L membranes) (Homo sapiens (Human), UniProt P14416). To be noted: displacement of 0.08 nM [3H]-Spiperone.
Take `Cc1ncoc1-c1nnc(SCCCN2CC[C@]3(CC3c3ccc(C(F)(F)F)nc3)C2)n1C` (stereo partly drawn) [Example 61, (1R,3S/1S,3R)-5-(3-{[4-methyl-5-(4-methyl-1,3-oxazol-5-yl)-4H-1,2,4-triazol-3-yl]sulfanyl}propyl)-1-[6-(trifluoromethyl)pyridin-3-yl]-5-azaspiro[2.4]heptane]: the “D2 pKi” value was found to be 5.63.

For `CC(=O)N1CCC(c2nnc(SCCCN3CC[C@]4(C[C@@H]4c4ccc(C(F)(F)F)cc4F)C3)n2C)CC1` [Example 101, 1-{4-[5-({3-[(1S,3S/1R,3R)-1-[2-fluoro-4-(trifluoromethyl)phenyl]-5-azaspiro[2.4]heptan-5-yl]propyl}sulfanyl)-4-methyl-4H-1,2,4-triazol-3-yl]piperidin-1-yl}ethan-1-one], the “D2 pKi” value amounted to 5.99. With `CC(=O)N1CCC(c2nnc(SCCCN3CC[C@]4(C[C@@H]4c4ccc(C(F)(F)F)cc4F)C3)n2C)CC1.Cl` [Example 102, 1-{4-[5-({3-[(1S,3S)-1-[2-fluoro-4-(trifluoromethyl)phenyl]-5-azaspiro[2.4]heptan-5-yl]propyl}sulfanyl)-4-methyl-4H-1,2,4-triazol-3-yl]piperidin-1-yl}ethan-1-one hydrochloride] the figure was 6.00. For the compound `COCCC(=O)N1CCC(c2nnc(SCCCN3CC[C@]4(C[C@@H]4c4ccc(C(F)(F)F)cc4)C3)n2C)CC1.Cl` [Example 104, 3-methoxy-1-{4-[4-methyl-5-({3-[(1R,3S)-1-[4-(trifluoromethyl)phenyl]-5-azaspiro[2.4]heptan-5-yl]propyl}sulfanyl)-4H-1,2,4-triazol-3-yl]piperidin-1-yl}propan-1-one hydrochloride], the “D2 pKi” value was 5.80. For `Cl.Cn1c(SCCCN2CC[C@]3(C[C@@H]3c3ccc(C(F)(F)F)cc3)C2)nnc1C1CCN(C(=O)C2CC2)CC1` [Example 106, (1R,3S)-5-(3-{[5-(1-cyclopropanecarbonylpiperidin-4-yl)-4-methyl-4H-1,2,4-triazol-3-yl]sulfanyl}propyl)-1-[4-(trifluoromethyl)phenyl]-5-azaspiro[2.4]heptane hydrochloride], the “D2 pKi” value is listed as 6.05. As to `CC(=O)N1CC(c2nnc(SCCCN3CC[C@]4(C[C@@H]4c4ccc(C(F)(F)F)cc4)C3)n2C)C1` [Example 107, 1-{3-[4-methyl-5-({3-[(1R,3S/1S,3R)-1-[4-(trifluoromethyl)phenyl]-5-azaspiro[2.4]heptan-5-yl]propyl}sulfanyl)-4H-1,2,4-triazol-3-yl]azetidin-1-yl}ethan-1-one], the “D2 pKi” value was 5.56.

Turning to `Cn1c(SCCCN2CC[C@]3(CC3c3ccc(C(F)(F)F)cc3)C2)nnc1C1CCC(N)CC1` (stereo partly drawn) [Example 108, 4-[4-methyl-5-({3-[(1R,3S/1S,3R)-1-[4-(trifluoromethyl)phenyl]-5-azaspiro[2.4]heptan-5-yl]propyl}sulfanyl)-4H-1,2,4-triazol-3-yl]cyclohexan-1-amine], the “D2 pKi” value came to 6.72.

Consider `Cl.Cn1c(SCCCN2CC[C@]3(C[C@@H]3c3ccc(C(F)(F)F)cc3)C2)nnc1C1CCC(=O)NC1` (stereo partly drawn) [Example 121, 5-[4-methyl-5-({3-[(1R,3S)-1-[4-(trifluoromethyl)phenyl]-5-azaspiro[2.4]heptan-5-yl]propyl}sulfanyl)-4H-1,2,4-triazol-3-yl]piperidin-2-one hydrochloride], for which the “D2 pKi” value is 5.92. For the compound `Cn1c(SCCCN2CC[C@]3(CC3c3ccc(C(F)(F)F)cc3)C2)nnc1-c1cccc(=O)[nH]1` (stereo partly drawn) [Example 122, 6-[4-methyl-5-({3-[(1R,3S/1S,3R)-1-[4-(trifluoromethyl)phenyl]-5-azaspiro[2.4]heptan-5-yl]propyl}sulfanyl)-4H-1,2,4-triazol-3-yl]-1,2-dihydropyridin-2-one], the “D2 pKi” value was determined as 6.34. With `Cn1c(SCCCN2CC[C@]3(CC3c3ccc(C(F)(F)F)cc3F)C2)nnc1-c1cccc(=O)[nH]1` (stereo partly drawn) [Example 123, 6-[5-({3-[(1R,3S/1S,3R)-1-[2-fluoro-4-(trifluoromethyl)phenyl]-5-azaspiro[2.4]heptan-5-yl]propyl}sulfanyl)-4-methyl-4H-1,2,4-triazol-3-yl]-1,2-dihydropyridin-2-one], the “D2 pKi” value amounted to 6.00. As to `Cn1c(SCCCN2CC[C@]3(CC3c3ccc(C(F)(F)F)cc3)C2)nnc1-c1ccc[nH]c1=O` (stereo partly drawn) [Example 124, 3-[4-methyl-5-({3-[(1R,3S/1S,3R)-1-[4-(trifluoromethyl)phenyl]-5-azaspiro[2.4]heptan-5-yl]propyl}sulfanyl)-4H-1,2,4-triazol-3-yl]-1,2-dihydropyridin-2-one], the “D2 pKi” value amounted to 5.32. With `Cl.Cn1c(SCCCN2CC[C@]3(C[C@@H]3c3ccc(C(F)(F)F)cc3)C2)nnc1-c1ccc[nH]c1=O` [Example 125, 3-[4-methyl-5-({3-[(1R,3S)-1-[4-(trifluoromethyl)phenyl]-5-azaspiro[2.4]heptan-5-yl]propyl}sulfanyl)-4H-1,2,4-triazol-3-yl]-1,2-dihydropyridin-2-one hydrochloride] the figure was 5.48; with `Cn1c(SCCCN2CC[C@]3(CC3c3ccc(C(F)(F)F)cc3F)C2)nnc1-c1ccc(=O)[nH]c1` (stereo partly drawn) [Example 129, 5-[5-({3-[(1S,3S/1R,3R)-1-[2-fluoro-4-(trifluoromethyl)phenyl]-5-azaspiro[2.4]heptan-5-yl]propyl}sulfanyl)-4-methyl-4H-1,2,4-triazol-3-yl]-1,2-dihydropyridin-2-one], 6.35; with `Cn1c(SCCCN2CC[C@]3(CC3c3ccc(F)cc3F)C2)nnc1-c1ccc(=O)[nH]c1` (stereo partly drawn) [Example 130, 5-[5-({3-[(1S,3S/1R,3R)-1-(2,4-difluorophenyl)-5-azaspiro[2.4]heptan-5-yl]propyl}sulfanyl)-4-methyl-4H-1,2,4-triazol-3-yl]-1,2-dihydropyridin-2-one], 6.16. Regarding `Cn1c(SCCCN2CC[C@]3(CC3c3ccc(F)cc3)C2)nnc1-c1ccc(=O)[nH]c1` (stereo partly drawn) [Example 131, 5-[5-({3-[(1R,3S/1S,3R)-1-(4-fluorophenyl)-5-azaspiro[2.4]heptan-5-yl]propyl}sulfanyl)-4-methyl-4H-1,2,4-triazol-3-yl]-1,2-dihydropyridin-2-one], the “D2 pKi” value is given as 6.16. With `Cn1c(SCCCN2CC[C@]3(CC3c3ccccc3C(F)(F)F)C2)nnc1-c1ccc(=O)[nH]c1` (stereo partly drawn) [Example 132, 5-[4-methyl-5-({3-[(1S,3S/1R,3R)-1-[2-(trifluoromethyl)phenyl]-5-azaspiro[2.4]heptan-5-yl]propyl}sulfanyl)-4H-1,2,4-triazol-3-yl]-1,2-dihydropyridin-2-one], the “D2 pKi” value is 6.87.

`Cn1c(SCCCN2CC[C@]3(CC3c3ccccc3C(F)(F)F)C2)nnc1-c1cc[nH]c(=O)c1` (stereo partly drawn) [Example 135, 4-[4-methyl-5-({3-[(1S,3S/1R,3R)-1-[2-(trifluoromethyl)phenyl]-5-azaspiro[2.4]heptan-5-yl]propyl}sulfanyl)-4H-1,2,4-triazol-3-yl]-1,2-dihydropyridin-2-one]: the “D2 pKi” value is reported as 6.54.

Turning to `Cl.Cn1c(SCCCN2CC[C@]3(C[C@@H]3c3ccc(C(F)(F)F)cc3F)C2)nnc1-c1ccn(C)c(=O)c1` [Example 139, 4-[5-({3-[(1S,3S)-1-[2-fluoro-4-(trifluoromethyl)phenyl]-5-azaspiro[2.4]heptan-5-yl]propyl}sulfanyl)-4-methyl-4H-1,2,4-triazol-3-yl]-1-methyl-1,2-dihydropyridin-2-one hydrochloride], the “D2 pKi” value was 5.83.

Take `Cn1c(SCCCN2CC[C@]3(C[C@H]3c3ccc(C(F)(F)F)cc3F)C2)nnc1-c1ccncc1` [Example 164, (1R,3S/1S,3R)-1-[2-fluoro-4-(trifluoromethyl)phenyl]-5-(3-{[4-methyl-5-(pyridin-4-yl)-4H-1,2,4-triazol-3-yl]sulfanyl}propyl)-5-azaspiro[2.4]heptane]: the “D2 pKi” value is listed as 6.23. Take `Cc1ncccc1-c1nnc(SCCCN2CC[C@]3(CC3c3ccccc3C(F)(F)F)C2)n1C.Cl.Cl` (stereo partly drawn) [Example 168, (1S,3S/1R,3R)-5-(3-{[4-methyl-5-(2-methylpyridin-3-yl)-4H-1,2,4-triazol-3-yl]sulfanyl}propyl)-1-[2-(trifluoromethyl)phenyl]-5-azaspiro[2.4]heptane dihydrochloride]: the “D2 pKi” value is on record as 6.44. On to `Cc1ccc(-c2nnc(SCCCN3CC[C@]4(CC4c4ccc(C(F)(F)F)cc4)C3)n2C)cn1` (stereo partly drawn) [Example 169, (1R,3S/1S,3R)-5-(3-{[4-methyl-5-(6-methylpyridin-3-yl)-4H-1,2,4-triazol-3-yl]sulfanyl}propyl)-1-[4-(trifluoromethyl)phenyl]-5-azaspiro[2.4]heptane], for which the “D2 pKi” value was 6.01. As for `Cn1c(SCCCN2CC[C@]3(CC3c3ccc(C(F)(F)F)cc3)C2)nnc1-c1cccnc1F` (stereo partly drawn) [Example 173, (1R,3S/1S,3R)-5-(3-{[5-(2-fluoropyridin-3-yl)-4-methyl-4H-1,2,4-triazol-3-yl]sulfanyl}propyl)-1-[4-(trifluoromethyl)phenyl]-5-azaspiro[2.4]heptane], the “D2 pKi” value worked out at 5.75. On to `CNC(=O)c1cccc(-c2nnc(SCCCN3CC[C@]4(C[C@@H]4c4ccc(C(F)(F)F)cc4)C3)n2C)n1.Cl` [Example 195, N-methyl-6-[4-methyl-5-({3-[(1R,3S)-1-[4-(trifluoromethyl)phenyl]-5-azaspiro[2.4]heptan-5-yl]propyl}sulfanyl)-4H-1,2,4-triazol-3-yl]pyridine-2-carboxamide hydrochloride], for which the “D2 pKi” value was found to be 5.84. Take `CN(C)C(=O)c1cccc(-c2nnc(SCCCN3CC[C@]4(C[C@@H]4c4ccc(C(F)(F)F)cc4)C3)n2C)n1.Cl` [Example 197, N,N-dimethyl-6-[4-methyl-5-({3-[(1R,3S)-1-[4-(trifluoromethyl)phenyl]-5-azaspiro[2.4]heptan-5-yl]propyl}sulfanyl)-4H-1,2,4-triazol-3-yl]pyridine-2-carboxamide hydrochloride]: the “D2 pKi” value worked out at 5.66. On to `Cc1ccc(C(N)=O)nc1-c1nnc(SCCCN2CC[C@]3(C[C@@H]3c3ccc(C(F)(F)F)cc3)C2)n1C.Cl` [Example 199, 5-methyl-6-[4-methyl-5-({3-[(1R,3S)-1-[4-(trifluoromethyl)phenyl]-5-azaspiro[2.4]heptan-5-yl]propyl}sulfanyl)-4H-1,2,4-triazol-3-yl]pyridine-2-carboxamide hydrochloride], for which the “D2 pKi” value was found to be 5.81.
